Data taken from patent US20090099167A1, “Organic compounds” (Novartis Institutes for Biomedical Research, priority 2004, published 2009).

Assays:
[1] = molecular target: Cdk1/cycB (UniProt P06493); experiment: Cdk1/cycB kinase assay, histone H1 substrate; assay type: biochemical, starfish; settings: Table 4; read-out: Cdk1, activity (IC50 for kinase inhibition)
Description: The inhibition of Cdk1 can be determined as follows: Cdk1/cycB: Cdk1/cycB are obtained from ProQinase, Freiburg, Germany. Starfish oocytes are induced to enter M phase of the cell cycle with 10 μM 1-methyladenine and frozen in liquid nitrogen and stored at −80° C. […] Briefly, the supernatant from oocytes is equilibrated for 30 min at 4° C. under constant rotation with the p9^CKShs-sepharose beads. The beads are extensively washed and active cdk1/cycB kinase is eluted with purified p9^CKShs (3 mg/ml). […] The assay is carried with slight modifications in 96-well plates at ambient temperature for 20 min. […] The reaction is terminated by addition of 25 μl 0.05 M EDTA pH 7.0. An aliquot of 40 μl is spotted with a multichannel dispenser on Immobilon P membranes mounted in a Millipore Microtiter filter manifold connected to a low vacuum source. After elimination of liquid, the membrane is transferred to a sequence of 4 washing baths containing 0.5% H3PO4 and one with EtOH (shaking incubation for 10 min each), dried, mounted onto a Hewlett Packard TopCount manifold added 10 μl Microscint® and counted. […] Cells were seeded at 2.5×10^7 cells per 150 mm dish and allowed to attach to a 150 mm dish for 1 hr at RT. Media (SF900II containing 10% FBS) is aspirated and recombinant baculovirus; GST-C-Raf-1, v-Ras and v-Src are added at MOI of 3.0, 2.5 and 2.5 receptively in a total volume of 4-5 mL. Cells are incubated for 1 hr at RT and then 15 mL of medium is added. Infected cells are incubated for 48-72 hr at 27° C. Infected Sf21 cells are scraped and collected into a 50 mL tube and centrifuged for 10 min at 4° C. at 1100 g in a Sorvall centrifuge. The cell pellet is washed once with ice cold PBS and lysed with 0.6 mL lysis buffer per 2.5×10^7 cells. Complete lysis of cells is achieved after 10 min on ice with occasional pipetting. […] GST-c-Raf-1 was allowed to bind to the beads at 4° C. for 1 hr with rocking. Bound GST-c-Raf-1 with beads was transferred to a column. The column is washed once with lysis buffer and twice with ice cold Tris buffered saline. Ice cold elution buffer is added and column flow is stopped to allow the free glutathione to disrupt the interaction of GST-c-Raf-1 with glutathione sepharose beads. Fractions (1 mL) are collected into pre-chilled tubes. Each tube contains 10% glycerol (final concentration) to maintain kinase activity during freeze thaw cycles. Purified fractions of GST-c-Raf-1 kinase protein are stored at −80° C.

[2] = molecular target: T1, human insulin receptor (Ins-R) (Homo sapiens, UniProt P06213); experiment: Ins-R tyrosine kinase assay, GST-Ins-R; assay type: biochemical; settings: Table 4; read-out: Ins-R, activity (IC50 for kinase inhibition)
T1 construct: encoding the amino acid region 919-1343 of the intra-cytoplasmic kinase domain of the human insulin receptor; made in house; host or cells: baculovirus (Bac-to-Bac)
Source text: The inhibition of IGF-1R and Ins-R can be determined as follows: The baculovirus donor vector pfbgx3IGFIRcd is used to generate a recombinant baculovirus that expresses the amino acid region 950-1337 of the mature peptide cytoplasmic domain of the human IGF-IR. To generate the cDNA fragment encoding the amino acid region 919-1343 of the intra-cytoplasmic kinase domain of the human insulin receptor, pC5hInsR is used. The fragments of the human IGF-IR and Ins-R are cloned, expressed and small-scale purified as a factor Xa-cleavable glutathione-S-transferase (GST)-fusion protein using the Bac-to-Bac™ system (GIBCO BRL) of recombinant baculovirus generation. Virus containing media is collected from the transfected cell culture and used for infection to increase its titer. Virus containing media obtained after two rounds of infection is used for large-scale protein expression. Cell extracts are prepared and loaded onto a glutathione-Sepharose (Pharmacia) column. After washing, the GST-tagged proteins are then eluted with a glutathione-containing buffer. Purified protein is stored at −70° C. in elution buffer. Tyrosine protein kinase assays with purified GST-IGF-1R and GST-ins-R are carried in a final volume of 30 μl containing 20 mM Tris-HCl, pH 7.6, 10 mM MgCl2, 0.01 mM Na3VO4, 1% DMSO, 1 mM DTT, 3 μg/ml poly(Glu,Tyr) 4:1 and 10 μM ATP (γ-[^33P]-ATP 0.1 μCi). The assay is performed in 96-well plates at ambient temperature for 20 min and terminated by addition of 25 μl 0.05 M EDTA pH 7.0. An aliquot of 40 μl is spotted with a multichannel dispenser on Whatman P81 membranes mounted in a Millipore Microtiter filter manifold connected to a low vacuum source. After elimination of liquid, the membrane is transferred to a sequence of 4 washing baths containing 0.5% H3PO4 and one with EtOH (shaking incubation for 10 min each), dried, mounted onto a Hewlett Packard TopCount manifold added 10 μl Microscint® and counted. Compounds of formula (I) show up to 90% inhibition of Ins-R at 10,000 nM, preferably between 60-90% inhibition. The inhibition of Tek can be determined as follows: The procedure of the expression, purification and assay these kinases has been described. Fabbro et al., Pharmacol. Ther. 82(2-3) 293-301 (1999). In brief, the glutathione S-transferase (GST) gene from the pAcG1 vector (Pharmingen) is excised with EcoRV and EcoRI and inserted into the cloning site of the Fast-Bac baculoviral vector (GIBCO) creating a 5530 bp vector with N-terminal cloning sites derived from the pAcG1 fusion vector (FBG0). The C-terminal cloning site may be any cloning site (from the Fast-Bac vector) downstream of the N-terminal cloning site used. N-terminally GST-fused (pAcG1, Pharmingen) KDR, Flt-1, Flk-1, Tek and PDGFR-β kinase domains are obtained from ProQinase, Freiburg, Germany. Tek is recloned into the FBG1 vector by EcoRI excision and ligation into EcoRI digested FBG1 (FBG1-Tek). The coding sequences for the whole cytoplasmic domain of c-Kit (aa 544-976) and c-Fms (aa 538-972) are amplified by PCR from human uterus and from human bone marrow cDNA libraries (Clontech), respectively. The amplified DNA fragments are fused to GST by cloning them into FBG1 as BamHI-EcoRI insertions, to yield FBG1-c-Kit and FBG1-c-Fms. Tek is recloned into the FBG0 transfer vector by EcoRI excision and ligation into EcoRI digested FBG0 (FBG-Tie2/Tek). FGFR-1 and c-met kinase domains are obtained by PCR from human A431 cells. N-terminal primers contain an overhanging EcoRI site, while C-terminal primers contain a XhoI site to aid cloning into the transfer vectors. After digestion of both the PCR fragments and FBG0 the cleavage products are gel-purified and ligated together to form the kinase constructs (FBG-Met, FBG-FGFR-1).

[3] = molecular target: T2, c-Abl kinase (Homo sapiens, UniProt P00519); experiment: c-Abl protein-tyrosine kinase filter binding assay; assay type: biochemical
T2 construct: The His-tagged kinase domain of c-Abl is cloned and expressed in the baculovirus/Sf9 system; His; made in house; host or cells: Sf9 (baculovirus)
T2 sequence (P00519 242-493 limits assumed): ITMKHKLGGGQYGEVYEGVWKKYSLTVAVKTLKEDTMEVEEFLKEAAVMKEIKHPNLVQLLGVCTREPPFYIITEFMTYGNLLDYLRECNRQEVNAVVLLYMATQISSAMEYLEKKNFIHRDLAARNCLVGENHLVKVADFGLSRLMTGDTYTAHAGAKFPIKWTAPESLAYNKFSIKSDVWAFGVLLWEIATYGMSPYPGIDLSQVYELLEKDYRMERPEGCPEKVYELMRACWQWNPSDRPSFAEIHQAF
Description: The His-tagged kinase domain of c-Abl is cloned and expressed in the baculovirus/Sf9 system as described by Bhat et al. in J. Biol. Chem. 1997; 272:16170-16175. A protein of 37 kD (c-Abl kinase) is purified by a two-step procedure over a Cobalt metal chelate column followed by an anion exchange column with a yield of 1-2 mg/L of Sf9 cells (Bhat et al., reference cited). The purity of the c-Abl kinase is >90% as judged by SDS-PAGE after Coomassie blue staining. The assay contains (total volume of 30 μL): c-Abl kinase (50 ng), 20 mM Tris.HCl, pH 7.5, 10 mM MgCl2, 10 μM Na3VO4, 1 mM DTT and 0.06 μCi/assay [γ^33 P]-ATP (5 μM ATP) using 30 μg/mL poly-Ala,Glu,Lys,Tyr-6:2:5:1 (Poly-AEKY, Sigma P1152) in the presence of 1% DMSO. Reactions are terminated by adding 10 μL of 250 mM EDTA and 30 μL of the reaction mixture is transferred onto Immobilon-PVDF membrane (Millipore, Bedford, Mass., USA) previously soaked for 5 min with methanol, rinsed with water, then soaked for 5 min with 0.5% H3PO4 and mounted on vacuum manifold with disconnected vacuum source. After spotting all samples, vacuum is connected and each well rinsed with 200 μL 0.5% H3PO4. Membranes are removed and washed on a shaker with 0.5% H3PO4 (4 times) and once with ethanol. Membranes are counted after drying at ambient temperature, mounting in Packard TopCount 96-well frame, and addition of 10 μL/well of Microscint™ (Packard).

[4] = molecular target: T3, human RET (Homo sapiens, UniProt P07949); experiment: RET kinase inhibition, GST-wtRET or GST-RET-Men2B, 33P incorporation into poly(Glu,Tyr); assay type: biochemical; settings: Table 4
T3 construct: fused on or other part: N-terminal GST tag (pFB-GSTX3 vector)
Description: The inhibition of RET is measured as follows: The baculovirus donor vector pFB-GSTX3 is used to generate a recombinant baculovirus that expresses the amino acid region 658-1072 (Swiss prot No. Q9BTB0) of the intra-cytoplasmic kinase domain of human RET-Men2A which corresponds to the wild-type kinase domain of RET (wtRET) and RET-Men2B, which differs from the wtRET by the activating mutation in the activation loop M918T. The coding sequences for the cytoplasmic domain of wtRET and RET-Men2B are amplified by PCR from the plasmids pBABEpuro RET-Men2A and pBABEpuro RET-Men2B. The amplified DNA fragments and the pFB-GSTX3 vector are made compatible for ligation by digestion with SalI and KpnI. Ligation of these DNA fragments results in the baculovirus donor plasmid pFB-GX3-RET-Men2A and pFB-GX3-RET-Men2B, respectively. Production of virus: Transfer vectors containing the kinase domains are transfected into the DH10Bac cell line (GIBCO) and plated on selective agar plates. Colonies without insertion of the fusion sequence into the viral genome (carried by the bacteria) are blue. Single, white colonies are picked and viral DNA (bacmid) are isolated from the bacteria by standard plasmid purification procedures. Sf9 cells or Sf21 (American Type Culture Collection) cells are then transfected in 25 cm^2 flasks with the viral DNA using Cellfectin reagent. Determination of small scale protein expression in Sf9 cells: Virus-containing media is collected from the transfected cell culture and used for infection to increase its titer. Virus-containing media obtained after two rounds of infection is used for large-scale protein expression. For large-scale protein expression 100 cm^2 round tissue culture plates are seeded with 5×10^7 cells/plate and infected with 1 mL of virus-containing media (approximately 5 MOIs). After 3 days, the cells are scraped off the plate and centrifuged at 500 rpm for 5 minutes. Cell pellets from 10-20, 100 cm^2 plates, are re-suspended in 50 mL of ice-cold lysis buffer (25 mM tris-HCl, pH 7.5, 2 mM EDTA, 1% NP-40, 1 mM DTT, 1 mM P MSF). The cells are stirred on ice for 15 minutes and then centrifuged at 5,000 rpms for 20 minutes. Purification of GST-tagged proteins: The centrifuged cell lysate is loaded onto a 2 mL glutathione-sepharose column (Pharmacia) and is washed 3× with 10 mL of 25 mM tris-HCl, pH 7.5, 2 mM EDTA, 1 mM DTT, 200 mM NaCl. The GST-tagged proteins are then eluted by 10 applications (1 mL each) of 25 mM tris-HCl, pH 7.5, 10 mM reduced-glutathione, 100 mM NaCl, 1 mM DTT, 10% glycerol and stored at −70° C. Measure of enzyme activity: Tyrosine protein kinase assays with either purified GST-wtRET or GST-RET-Men2B protein are carried out in a final volume of 30 μL containing 15 ng of either GST-wtRET or GST-RET-Men2B protein, 20 mM tris-HCl, pH 7.5, 1 mM MnCl2, 10 mM MgCl2, 1 mM DTT, 3 μg/mL poly(Glu,Tyr) 4:1, 1% DMSO, 2.0 μM ATP (γ-[^33P]-ATP 0.1 μCi). The activity is assayed in the presence or absence of inhibitors, by measuring the incorporation of ^33P from [γ^33P] ATP into poly(Glu,Tyr) 4:1. The assay is carried out in 96-well plates at ambient temperature for 15 minutes under conditions described below and terminated by the addition of 20 μL of 125 mM EDTA. Subsequently, 40 μL of the reaction mixture are transferred onto Immobilon-PVDF membrane (Millipore) previously soaked for 5 minutes with methanol, rinsed with water, then soaked for 5 minutes with 0.5% H3PO4 and mounted on vacuum manifold with disconnected vacuum source. After spotting all samples, vacuum is connected and each well-rinsed with 200 μL 0.5% H3PO4. Membranes are removed and washed 4× on a shaker with 1.0% H3PO4, once with ethanol. Membranes are counted after drying at ambient temperature, mounting in Packard TopCount 96-well frame, and addition of 10 μL/well of Microscint™ (Packard). IC50 values are calculated by linear regression analysis of the percentage inhibition of each compound in duplicate, at 4 concentrations (usually 0.01, 0.1, 1 and 10 μM). […]

T3 sequence (P07949 1-1072 isoform P07949-2): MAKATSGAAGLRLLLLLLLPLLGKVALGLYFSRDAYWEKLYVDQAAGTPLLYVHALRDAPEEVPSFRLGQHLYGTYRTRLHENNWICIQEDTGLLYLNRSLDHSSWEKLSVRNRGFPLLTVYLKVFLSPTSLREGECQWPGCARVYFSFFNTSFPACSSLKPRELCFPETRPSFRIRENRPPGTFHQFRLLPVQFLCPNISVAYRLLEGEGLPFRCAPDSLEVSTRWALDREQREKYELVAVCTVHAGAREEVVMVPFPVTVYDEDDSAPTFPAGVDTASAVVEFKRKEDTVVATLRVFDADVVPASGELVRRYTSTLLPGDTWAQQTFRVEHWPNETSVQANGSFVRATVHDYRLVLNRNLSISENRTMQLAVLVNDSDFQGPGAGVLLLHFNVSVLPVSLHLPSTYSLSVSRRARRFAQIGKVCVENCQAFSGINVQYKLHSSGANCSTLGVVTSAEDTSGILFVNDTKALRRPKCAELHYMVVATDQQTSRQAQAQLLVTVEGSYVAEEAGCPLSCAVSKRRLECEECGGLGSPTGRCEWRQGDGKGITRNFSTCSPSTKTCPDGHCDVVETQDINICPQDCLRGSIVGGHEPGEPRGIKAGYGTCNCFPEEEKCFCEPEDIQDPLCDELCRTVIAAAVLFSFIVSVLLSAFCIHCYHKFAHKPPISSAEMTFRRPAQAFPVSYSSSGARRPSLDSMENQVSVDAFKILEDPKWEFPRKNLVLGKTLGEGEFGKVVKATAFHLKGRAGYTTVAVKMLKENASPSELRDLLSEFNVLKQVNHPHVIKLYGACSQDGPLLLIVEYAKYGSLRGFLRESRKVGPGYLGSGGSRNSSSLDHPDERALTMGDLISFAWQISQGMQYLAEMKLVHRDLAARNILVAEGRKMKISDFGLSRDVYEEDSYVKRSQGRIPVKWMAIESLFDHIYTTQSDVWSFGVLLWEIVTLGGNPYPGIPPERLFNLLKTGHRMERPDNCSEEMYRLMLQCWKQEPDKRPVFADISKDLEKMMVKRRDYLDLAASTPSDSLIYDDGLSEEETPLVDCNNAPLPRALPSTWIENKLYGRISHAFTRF
T1 sequence (P06213 958-1382 limits assumed): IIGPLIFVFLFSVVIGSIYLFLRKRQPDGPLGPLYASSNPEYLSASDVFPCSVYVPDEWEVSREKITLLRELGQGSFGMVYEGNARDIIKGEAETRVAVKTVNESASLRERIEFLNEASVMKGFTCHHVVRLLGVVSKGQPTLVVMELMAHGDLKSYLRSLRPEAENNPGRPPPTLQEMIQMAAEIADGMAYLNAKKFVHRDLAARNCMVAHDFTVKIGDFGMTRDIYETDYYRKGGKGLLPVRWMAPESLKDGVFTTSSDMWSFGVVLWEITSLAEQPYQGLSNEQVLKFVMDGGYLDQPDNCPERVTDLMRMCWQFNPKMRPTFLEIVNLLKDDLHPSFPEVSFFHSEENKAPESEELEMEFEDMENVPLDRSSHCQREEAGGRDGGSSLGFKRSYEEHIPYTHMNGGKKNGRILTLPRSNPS

| SMILES | IC50 [1] [µM] | IC50 [2] [µM] | IC50 [3] [µM] | IC50 [4] [µM] |
| --- | --- | --- | --- | --- |
| Nc1cc(-c2ccccc2)nc2c(Br)cnn12 [Example 18, 3-Bromo-5-phenyl-pyrazolo[1,5-a]pyrimidin-7-ylamine] | < 10 | < 10 |  |  |
| CN1CCN(c2ccc(-c3cnn4c(N)c(-c5ccc(O)cc5)cnc34)cc2)CC1 [Example 35, 4-{7-Amino-3-[4-(4-methyl-piperazin-1-yl)-phenyl]-pyrazolo[1,5-a]pyrimidin-6-yl}-phenol] |  |  | < 10 | < 10 |
| Cc1nn2c(N)c(-c3cccc(O)c3)cnc2c1-c1ccc(N2CCN(C)CC2)cc1 [Example 61a, 3-{7-Amino-2-methyl-3-[4-(4-methyl-piperazin-1-yl)phenyl]-pyrazolo[1,5-a]pyrimidin-6-yl}-phenol] |  |  |  | < 10 |
